# Data reported in US20250114430A1, “MODIFIED PEPTIDOMIMETICS AND METHODS OF USE” (The University of North Carolina at Chapel Hill, priority 2021, published 2025).
# Entries after “also recorded” stand apart in the source; their conditions may differ. No end group written: not given here.
# How the values were obtained:
# SCNN1B mice = assay: SCNN1B (βENaC) overexpressing mice, chronic pulmonary inflammation; assay type: in vivo
# Experimental: SCNN1B and littermate control mice were exposed to ELD607 or vehicle intranasally on a daily basis for 11 days, starting on day 1 post-partum.
# FIG. 32 panel A: Mice were infected with P. aeruginosa for 24 h; then, 0.5 mg/kg ELD607 was added intratracheally. BAL was collected 24 h later to determine cell counts. SCNN1B mice were given 0.5 mg/kg ELD607 daily for 11 days before sacrifice and BAL collection. FIG. 32 panel B: Survival of bENaC mice.
# Additional models were tested such as the house dust mite (HDM) allergic lung inflammation model (FIG. 20); and SCNN1B-overexpression, wherein mice develop mucus obstruction and spontaneous pulmonary inflammation (FIG. 21).
# Repeated ELD607 exposure reduces chronic inflammation in βENaC overexpressing mice. We added ELD607 to βENaC overexpressing mice, which spontaneously develop chronic infection and neutrophilia and have increased mortality (FIG. 32, panel A).
# E. coli LPS = E. coli LPS sepsis model, intravenous ELD607; assay type: in vivo, mice; details: LPS intraperitoneally
# Experimental: We injected mice intraperitoneally with E. coli LPS, followed by 0.5 mg/kg ELD607 injected intravenously 1 h later.
# house dust mite allergen = assay: House dust mite (HDM) allergic lung inflammation model; assay type: in vivo, mice; details: HDM 14 days, 0.5 mg/kg intranasally for 2 days
# Experimental: Mice were exposed to HDM allergen for 14 days, with […] ELD100 or […] ELD607 instilled intranasally for 2 days before sacrifice.
# ELD607 reduces allergic inflammation. Mice were exposed to house dust mite allergen for 14 days. 0.5 mg/kg ELD100 or ELD607 were instilled intranasally for 2 days before sacrifice.
# αSMA = αSMA deposition in primary myofibroblasts from IPF patients; assay type: cell-based, human; details: primary myofibroblasts from five IPF patients
# Experimental: Each pair of point represents paired data from 5 different IPF donors.
# In vitro Methods: Fibroblasts were exposed to 10 nM TFGβ for 3-7 days as indicated. Then, ELD607 was added overnight. Fibroblasts were then fixed in paraformaldehyde, stained with primary a smooth muscle actin (αSMA) antibody, and imaged by confocal microscopy. Myofibroblasts were exposed to ELD607 without any TGFβ pre-treatment. In some cases, Western blotting was used to probe for αSMA.
sequence,measurement,setting,value
"VHDIVNMLIRG [ELD607, VHDIVNMLIRG]",survival of βENaC overexpressing mice,SCNN1B mice; daily intranasal 0.5 mg/kg,increased survival
same,neutrophils in SCNN1B (βENaC) mice,"SCNN1B mice; daily intranasal 0.5 mg/kg, 11 days",significantly reduced lung neutrophilia; also recorded: significantly decreased BAL neutrophil levels
same,BAL cells in WT littermate mice,"SCNN1B mice; daily intranasal, 11 days",no effect on WT mice
same,blood macrophages,E. coli LPS; 0.5 mg/kg intravenously,significantly increased blood macrophages
same,blood neutrophilia,E. coli LPS; 0.5 mg/kg intravenously,significantly reduced blood neutrophilia
same,weight loss,E. coli LPS; 0.5 mg/kg intravenously 1 h later,significant prevented weight loss
same,BAL eosinophilia,house dust mite allergen,significantly reduced
same,BAL macrophages,house dust mite allergen,increased BAL macrophages
same,BAL neutrophilia,house dust mite allergen,significantly reduced BAL neutrophilia
same,αSMA deposition,αSMA,significantly reduces αSMA deposition
